Like-named read-outs stand apart in the source and are kept apart here.
Assays:
[1] = Phase I clinical trial: pharmacokinetics after single and multiple oral administrations; format: in vivo, human; settings: for AR / Cmax / AUC / AUC(0-inf) / AUC(0-t) / half-life: GM (%CV); for Cmax / Tmax / AUC / AUC(0-inf) / AUC(0-t) / half-life: human, plasma, oral; for Tmax: Median (min-max); for AUC: read-out: AUC0-τ
Description: The PK parameters for single-dose administration mainly include peak concentration (Cmax), time to peak concentration (Tmax), half-life (T1/2), systemic clearance (CL), volume of distribution (Vd), AUC0-t, and AUC0-∞. The PK parameters for multiple-dose administration mainly include the area under the steady-state plasma concentration-time curve (AUCss), steady-state peak plasma concentration (Cmax, ss), steady-state trough plasma concentration (Cmin, ss), and steady-state time to peak plasma concentration (Tmax, ss).
Approximately eight dose groups in total were set in the dose escalation phase, which were 5 (the starting dose), 10, 20, 40, 60, 80, 100, and 125 mg, respectively. Subjects in all the dose groups received a single dose on day 1 (D1), and the blood samples were collected for pharmacokinetic (PK) assay and tolerability observation. If no grade 2 or a higher-level adverse event related to the investigational drug occurred during the single-dose period (5 to 7 days) (if such events occurred, dose adjustments would be made based on the toxicity according to the protocol), the subject entered the multiple-dose period (i.e., treatment period) 5 to 7 days later (7 days after the first administration in the first dose group (i.e., starting the multiple-dose treatment on day 8), and the intervals for the subsequent dose groups were determined based on the obtained tolerability and PK data). After entering the multiple-dose period, the subjects in the first dose group were initially administered with the drug once daily (QD) (if the PK data for the single-dose period had been obtained, the administration frequency for the multiple-dose period could be determined based on the PK data). The administration frequency for the subjects in the subsequent dose groups after entering the multiple-dose period was determined based on the obtained PK and tolerability data. In this trial, the administration frequency for all the subjects could be adjusted throughout the trial based on the continuously acquired safety and PK data. The four lower dose groups (5 mg, 10 mg, 20 mg and 40 mg) used an accelerated titration design, with one subject enrolled in each dose group. If any grade 2 or a higher-level adverse event related to the investigational drug occurred, the "3+3" dose escalation method would be switched to. The 60 mg dose group and the subsequent dose groups followed a "3+3" dose escalation method, and the MTD was determined. After the evaluation of the 8th dose group, if the researcher and the sponsor agreed that a higher dose group might have better efficacy and manageable safety, then a higher dose could be explored (e.g., the 9th dose group and the 10th dose group, at 150 mg and 180 mg, respectively). During the dose escalation, if a dose group was confirmed to have a preliminary antitumor effect and manageable safety (e.g., no DLT occurred in 3 subjects or only 1 out of 6 subjects experienced DLT), the dose level could be expanded after a discussion and confirmation by the researcher and the sponsor.
All the subjects in the dose escalation phase and dose expansion phase of this research needed to undergo intensive blood collection for PK study of the compound A, and all the subjects needed to undergo a population PK study of the compound A.

[2] = Phase II single-arm trial: safety analysis; format: in vivo; settings: 60 mg QD
Description: Once a subject met the criteria for the discontinuation of the treatment/withdrawal from the treatment and discontinued the medication, the subject entered a 4-week safety follow-up period. If other anti-tumor therapies were used during the safety follow-up period, a safety follow-up visit and inspection must be completed before starting the other anti-tumor therapies. For the unresolved adverse event or abnormal laboratory test, the follow-up continued until the event was resolved, the subject returned to the baseline status, the condition stabilized, a reasonable explanation was obtained, or the subject was lost to follow-up or died.

[3] = Multiple administrations, 40 mg
[4] = Multiple administrations, 60 mg
[5] = Multiple administrations, 80 mg
[6] = Multiple administrations, 100 mg
[7] = Multiple administrations, 125 mg

In the case of `[2H]C([2H])([2H])n1nc2c(c1C#N)-c1cnc(N)c(c1)O[C@H](C)c1cc(F)ccc1C(=O)N(C)C2` [compound A, (10R)-7-amino-12-fluoro-2-(methyl-d3)-10,16-dimethyl-15-oxo-10,15,16,17-tetrahydro-2H-8,4-(metheno)pyrazolo[4,3-h][2,5,11]benzoxadiazacyclotetradecine-3-carbonitrile], the AR [1, 3] is reported as 1.044(25 .1) [3], the AR [1, 4] is reported as 0.913(44.1 ) [3] and the AR [1, 5] is reported as 1.256(45.9) [4]. For the same compound, the AR [1, 6] was 0.732(6 6.4) [3], the AR [1, 7] was 0.606(36. 1) [3] and the Cmax ([1]; 40 mg, Multiple administrations, 40 mg, read-out: Cmax, SS) was 387 ng/mL. The Tmax ([1]; 40 mg, Multiple administrations) was 1 h, the Cmax ([1]; 40 mg, Single administration, 40 mg, read-out: Cmax) was 392 ng/mL and the Tmax ([1]; 40 mg, Single administration) was 0.98 h. It also gave a Cmax ([1]; 60 mg, Multiple administrations, 60 mg, read-out: Cmax, SS) of 644 ng/mL, a Tmax ([1]; 60 mg, Multiple administrations) of 0.533 h and a Cmax ([1]; 60 mg, Single administration, 60 mg, read-out: Cmax) of 875 ng/mL. The Tmax ([1]; 60 mg, Single administration) was 0.5 h, the Cmax ([1]; 80 mg, Multiple administrations, 80 mg, read-out: Cmax, SS) was 589 ng/mL and the Tmax ([1]; 80 mg, Multiple administrations) was 1.56 h. The Cmax ([1]; 80 mg, Single administration, 80 mg, read-out: Cmax) was 524 ng/mL, the Tmax ([1]; 80 mg, Single administration) was 0.7 h and the Cmax ([1]; 100 mg, Multiple administrations, 100 mg, read-out: Cmax, SS) was 798 ng/mL. For the same compound, the Tmax ([1]; 100 mg, Multiple administrations) was 1.97 h, the Cmax ([1]; 100 mg, Single administration, 100 mg, read-out: Cmax) was 774 ng/mL and the Tmax ([1]; 100 mg, Single administration) was 1.02 h. It also gave a Cmax ([1]; 125 mg, Multiple administrations, 125 mg, read-out: Cmax, SS) of 987 ng/mL, a Tmax ([1]; 125 mg, Multiple administrations) of 0.5 h and a Cmax ([1]; 125 mg, Single administration, 125 mg, read-out: Cmax) of 1260 ng/mL. It also gave a Tmax ([1]; 125 mg, Single administration) of 1.02 h, an AUC [1, 3] of 3880 ng·h/mL and an AUC [1, 4] of 5440 ng·h/mL. The AUC [1, 5] was 5500 ng·h/mL, the AUC [1, 6] was 7020 ng·h/mL and the AUC [1, 7] was 7700 ng·h/mL. For the same compound, the AUC(0-inf) ([1]; Single administration, 40 mg) was 4710 ng·h/mL, the AUC(0-t) ([1]; Single administration, 40 mg) was 4440 ng·h/mL and the half-life ([1]; Single administration, 40 mg) was 27.8 h. The AUC(0-inf) ([1]; Single administration, 60 mg) was 12200 ng·h/mL, the AUC(0-t) ([1]; Single administration, 60 mg) was 11300 ng·h/mL and the half-life ([1]; Single administration, 60 mg) was 33.6 h. The AUC(0-inf) ([1]; Single administration, 80 mg) was 10100 ng·h/mL, the AUC(0-t) ([1]; Single administration, 80 mg) was 9140 ng·h/mL and the half-life ([1]; Single administration, 80 mg) was 34.2 h. It also gave an AUC(0-inf) ([1]; Single administration, 100 mg) of 14600 ng·h/mL, an AUC(0-t) ([1]; Single administration, 100 mg) of 13800 ng·h/mL and a half-life ([1]; Single administration, 100 mg) of 30.5 h. It also gave an AUC(0-inf) ([1]; Single administration, 125 mg) of 18700 ng·h/mL, an AUC(0-t) ([1]; Single administration, 125 mg) of 17800 ng·h/mL and a half-life ([1]; Single administration, 125 mg) of 29.2 h. The “common TRAEs” value [2] was “hypercholesterolemia, hypertriglyceridemia, weight gain, anemia, and peripheral edema” and the “incidence of TRAEs leading to dose reduction, temporary or permanent discontinuation of medication” value [2] was “low”.

Reference: patent EP4810038A1, “METHOD FOR TREATING ALK-POSITIVE OR ROS1-POSITIVE NON-SMALL CELL LUNG CANCER” (Shenzhen TargetRx Co., Ltd., priority 2023, dated 2025)
